According to ChEMBL document CHEMBL1681651, “A broad spectrum anticancer nucleoside with selective toxicity against human colon cells in vitro” (2011):

How the values were obtained:
Type in all cases: functional
OVCAR-3 = assay: Growth inhibition of human OVCAR3 cells assessed as cell growth at 10 uM after 48 hrs by SRB assay; conditions: OVCAR-3, 48 h, read-out: Activity
SF-268 = assay: Growth inhibition of human SF268 cells assessed as cell growth at 10 uM after 48 hrs by SRB assay; conditions: SF-268, 48 h, read-out: Activity
TK-10 [1] = assay: Growth inhibition of human TK10 cells assessed as cell growth at 10 uM after 48 hrs by SRB assay; conditions: TK-10, 48 h, read-out: Activity
SNB-75 = assay: Growth inhibition of human SNB75 cells assessed as cell growth at 1 mM after 48 hrs by SRB assay; conditions: SNB-75, 48 h, read-out: Activity
DU-145 = assay: Growth inhibition of human DU145 cells assessed as cell growth at 1 mM after 48 hrs by SRB assay; conditions: DU-145, 48 h, read-out: Activity
NCI-H460 = assay: Growth inhibition of human NCI-H460 cells assessed as cell growth at 100 uM after 48 hrs by SRB assay; conditions: NCI-H460, 48 h, read-out: Activity
MDA-MB-435 = assay: Growth inhibition of human MDA-MB-435 cells assessed as cell growth at 0.1 uM after 48 hrs by SRB assay; conditions: MDA-MB-435, 48 h, read-out: Activity
UO-31 = assay: Growth inhibition of human UO31 cells assessed as cell growth at 1 uM after 48 hrs by SRB assay; conditions: UO-31, 48 h, read-out: Activity
NCI-H322M = assay: Growth inhibition of human NCI-H322M cells assessed as cell growth at 1 uM after 48 hrs by SRB assay; conditions: read-out: Activity
NCI-H522 = assay: Growth inhibition of human NCI-H522 cells assessed as cell growth at 1 mM after 48 hrs by SRB assay; conditions: NCI-H522, 48 h, read-out: Activity
HCT-15 = assay: Growth inhibition of human HCT15 cells assessed as cell growth at 1 uM after 48 hrs by SRB assay; conditions: HCT-15, 48 h, read-out: Activity
UACC-257 = assay: Growth inhibition of human UACC257 cells assessed as cell growth at 10 uM after 48 hrs by SRB assay; conditions: UACC-257, 48 h, read-out: Activity
COLO 205 [2] = assay: Growth inhibition of human COLO205 cells assessed as cell growth at 100 uM after 48 hrs by SRB assay; conditions: COLO 205, 48 h, read-out: Activity
COLO 205 [3] = assay: Growth inhibition of human COLO205 cells assessed as cell growth at 1 mM after 48 hrs by SRB assay; conditions: COLO 205, 48 h, read-out: Activity
A498 = assay: Growth inhibition of human A498 cells assessed as cell growth at 0.1 uM after 48 hrs by SRB assay; conditions: A498, 48 h, read-out: Activity
T47D = assay: Growth inhibition of human T47D cells assessed as cell growth at 1 uM after 48 hrs by SRB assay; conditions: read-out: Activity
[4] = Growth inhibition of human […] cells assessed as cell growth at 1 mM after 48 hrs by SRB assay; conditions: read-out: Activity
SN12C = assay: Growth inhibition of human SN12C cells assessed as cell growth at 100 uM after 48 hrs by SRB assay; conditions: read-out: Activity
NCI-H226 = assay: Growth inhibition of human NCI-H226 cells assessed as cell growth at 0.1 uM after 48 hrs by SRB assay; conditions: NCI-H226, 48 h, read-out: Activity
COLO 205 [5] = assay: Growth inhibition of human COLO205 cells assessed as cell growth at 1 uM after 48 hrs by SRB assay; conditions: COLO 205, 48 h, read-out: Activity
CAKI-1 [6] = assay: Growth inhibition of human Caki1 cells assessed as cell growth at 100 uM after 48 hrs by SRB assay; conditions: CAKI-1, 48 h, read-out: Activity
SNB-19 [7] = assay: Growth inhibition of human SNB19 cells assessed as cell growth at 1 uM after 48 hrs by SRB assay; conditions: SNB-19, 48 h, read-out: Activity
IGROV-1 [8] = assay: Growth inhibition of human IGROV1 cells after 48 hrs by […] growth inhibition assay; conditions: IGROV-1, 48 h
RXF 393 = assay: Growth inhibition of human RXF393 cells assessed as cell growth at 100 uM after 48 hrs by SRB assay; conditions: RXF 393, 48 h, read-out: Activity
MCF7 = assay: Growth inhibition of human MCF7 cells assessed as cell growth at 1 uM after 48 hrs by SRB assay; conditions: MCF7, 48 h, read-out: Activity
CAKI-1 [9] = assay: Growth inhibition of human Caki1 cells after 48 hrs by […] growth inhibition assay; conditions: CAKI-1, 48 h
SNB-19 [10] = assay: Growth inhibition of human SNB19 cells after 48 hrs by […] growth inhibition assay; conditions: SNB-19, 48 h
OVCAR-4 = assay: Growth inhibition of human OVCAR4 cells after 48 hrs by […] growth inhibition assay; conditions: OVCAR-4, 48 h
EKVX = assay: Growth inhibition of human EKVX cells after 48 hrs by […] growth inhibition assay
HOP-62 = assay: Growth inhibition of human HOP62 cells assessed as cell growth at 100 uM after 48 hrs by SRB assay; conditions: HOP-62, 48 h, read-out: Activity
TK-10 [11] = assay: Growth inhibition of human TK10 cells assessed as cell growth at 1 mM after 48 hrs by SRB assay; conditions: TK-10, 48 h, read-out: Activity
CCRF-CEM = assay: Growth inhibition of human CCRF-CEM cells assessed as cell growth at 1 uM after 48 hrs by SRB assay; conditions: read-out: Activity
OVCAR-8 = assay: Growth inhibition of human OVCAR8 cells assessed as cell growth at 1 uM after 48 hrs by SRB assay; conditions: OVCAR-8, 48 h, read-out: Activity
IGROV-1 [12] = assay: Growth inhibition of human IGROV1 cells assessed as cell growth at 100 uM after 48 hrs by SRB assay; conditions: IGROV-1, 48 h, read-out: Activity
[13] = read-out: LC50 (the source's name)
[14] = read-out: pLC50 (the source's name) (converted)

CNC(=O)OC[C@H]1O[C@@H](n2cnc3c(NC(=O)Nc4ccccc4)ncnc32)[C@H](O[Si](C)(C)C(C)(C)C)[C@@H]1O[Si](C)(C)C(C)(C)C
growth at 10 µM (OVCAR-3): 107%
growth at 10 µM (SF-268): 85.2%
growth at 10 µM (TK-10 [1]): 96%

CCOC(=O)C[C@H]1[C@@H](O[Si](C)(C)C(C)(C)C)[C@H](n2cnc3c(NC(=O)Nc4ccccc4)ncnc32)O[C@@H]1CNC(=O)NC
growth at 1000 µM (SNB-75): 22%
growth at 1000 µM (DU-145): -59%
growth at 100 µM (NCI-H460): 32%
growth at 0.1 µM (MDA-MB-435): 95%
growth at 1 µM (UO-31): 87%
growth at 10 µM (OVCAR-3): 116%
growth at 1 µM (NCI-H322M): 90%
growth at 1000 µM (NCI-H522): -2%
growth at 1 µM (HCT-15): 96%
growth at 10 µM (UACC-257): 99%
growth at 100 µM (COLO 205 [2]): 20%
growth at 1000 µM (COLO 205 [3]): 3%
growth at 0.1 µM (A498): 95%
growth at 1 µM (T47D): 89%
growth at 1000 µM [4]: -57%
growth at 100 µM (SN12C): 48%
growth at 0.1 µM (NCI-H226): 101%
growth at 1 µM (COLO 205 [5]): 97%
growth at 100 µM (CAKI-1 [6]): 88%
growth at 1 µM (SNB-19 [7]): 95%
GI50 (IGROV-1 [8]; read-out: GI50): 3.85 µM
CC50 (IGROV-1 [8]; [13]): 79.2 µM
TGI (IGROV-1 [8]; read-out: TGI): 18 µM
GI50 (IGROV-1 [8]; read-out: pGI50 (converted)): 3.89 µM
CC50 (IGROV-1 [8]; [14]): 79.4 µM
TGI (IGROV-1 [8]; read-out: pTGI (converted)): 18.2 µM
growth at 100 µM (RXF 393): -46%
growth at 1 µM (MCF7): 91%
GI50 (CAKI-1 [9]; read-out: GI50): 29.7 µM
CC50 (CAKI-1 [9]; [13]): > 100 µM
TGI (CAKI-1 [9]; read-out: TGI): > 100 µM
GI50 (CAKI-1 [9]; read-out: pGI50 (converted)): 29.5 µM
CC50 (CAKI-1 [9]; [14]): > 100 µM
TGI (CAKI-1 [9]; read-out: pTGI (converted)): > 100 µM
GI50 (SNB-19 [10]; read-out: GI50): 29 µM
CC50 (SNB-19 [10]; [13]): > 100 µM
TGI (SNB-19 [10]; read-out: TGI): > 100 µM
GI50 (SNB-19 [10]; read-out: pGI50 (converted)): 28.8 µM
CC50 (SNB-19 [10]; [14]): > 100 µM
TGI (SNB-19 [10]; read-out: pTGI): > 100 µM
GI50 (OVCAR-4; read-out: GI50): 12.3 µM
CC50 (OVCAR-4; [13]): > 100 µM
TGI (OVCAR-4; read-out: TGI): > 100 µM
GI50 (OVCAR-4; read-out: pGI50 (converted)): 12.3 µM
CC50 (OVCAR-4; [14]): > 100 µM
TGI (OVCAR-4; read-out: pTGI): > 100 µM
GI50 (EKVX; read-out: GI50): 17.7 µM
CC50 (EKVX; [13]): > 100 µM
TGI (EKVX; read-out: TGI): > 100 µM
GI50 (EKVX; read-out: pGI50 (converted)): 17.8 µM
CC50 (EKVX; [14]): > 100 µM
TGI (EKVX; read-out: pTGI (converted)): > 100 µM
growth at 10 µM (SF-268): 93%
growth at 100 µM (HOP-62): 48%
growth at 1000 µM (TK-10 [11]): -38%
growth at 10 µM (TK-10 [1]): 105%
growth at 1 µM (CCRF-CEM): 100%
growth at 1 µM (OVCAR-8): 100%
growth at 100 µM (IGROV-1 [12]): 20%
